In brackets after ≈: the same amount, converted by molar mass. Marks after values point to notes of the source that are not given here.
Assays:
[1] = tested on: Escherichia coli NCTC 9001; assay: Broth microdilution MIC, E. coli; format: cell-based
Description: (§1) Minimal inhibitory concentration (MIC) values against Pseudomonas aeruginosa PA01, Staphylococcus aureus ATCC 43300, Salmonella enteritidis ATCC 13075, Salmonella pullorum ATCC 13036, Escherichia coli NCTC 9001, Listeria monocytogenes NCTC 11994, and Enterococcus faecalis ATCC 29212 were determined in Luria-Bertani broth (10.0 g/L tryptone, 10.0 g/L NaCl, 5.0 g/L yeast extract, pH 7.2) in accordance with the standard broth microdilution assay for bacteria that grow aerobically, as recommended by the CLSI (Clinical and Laboratory Standards Institute, Methods for Dilution Antimicrobial Susceptibility Tests for Bacteria That Grow Aerobically; Approved Standard—Tenth Edition M07-A10. CLSI). The highest tested concentration was 500 μg/mL, and the inocula were 1^·10^6 cfu/mL.

[2] = tested on: Pseudomonas aeruginosa PAO1; assay: Broth microdilution MIC, P. aeruginosa; format: cell-based
Description: as §1

[3] = tested on: Listeria monocytogenes NCTC 11994; assay: Broth microdilution MIC, L. monocytogenes; format: cell-based
Description: as §1

[4] = tested on: Staphylococcus aureus ATCC 43300; assay: Broth microdilution MIC, S. aureus; format: cell-based
Description: as §1

[5] = tested on: Enterococcus faecalis ATCC 29212; assay: Broth microdilution MIC, E. faecalis; format: cell-based
Description: as §1

[6] = tested on: Salmonella enteritidis ATCC 13075; assay: Broth microdilution MIC, S. enteritidis; format: cell-based; conditions: 24 h
Description: as §1

[7] = tested on: Salmonella pullorum ATCC 13036; assay: Broth microdilution MIC, S. pullorum; format: cell-based; conditions: 24 h
Description: as §1

C. albicans ATCC 10231 = assay: Broth microdilution MIC, C. albicans; format: cell-based, Candida albicans
Description: (§2) Stock solutions of bpa, bpe, and silver(I) complexes 1–3 were prepared fresh in DMSO (50 mg/mL) and kept at 4°C prior to use. Susceptibility testing of Candida spp. (C. albicans ATCC 10231, C. krusei ATCC 6258, C. parapsilosis ATCC 22019, and C. glabrata ATCC 2001) was performed according to CLSI broth microdilution guidelines (Clinical and Laboratory Standards Institute, Reference Method for Broth Dilution Antifungal Susceptibility Testing of Yeasts—Third Edition: Approved Standard M27-A3; Clinical and Laboratory Standards Institute, Reference Method for Broth Dilution Antifungal Susceptibility Testing of Yeasts: Fourth Informational Supplement M27-S4), in RPMI 1640 medium (Roswell Park Memorial Institute medium) containing 2% glucose (w/v). The highest tested concentration was 500 μg/mL, and the inocula were 1^·\10^5 colony forming units (cfu)/mL.

[8] = tested on: C. parapsilosis ATCC 22019; assay: Broth microdilution MIC, C. parapsilosis; format: cell-based, Candida parapsilosis
Description: as §2

C. glabrata ATCC 2001 = assay: Broth microdilution MIC, C. glabrata; format: cell-based, Candida glabrata
Description: as §2

C. krusei ATCC 6258 = assay: Broth microdilution MIC, C. krusei; format: cell-based, Candida krusei
Description: as §2

[9] = tested on: human lung fibroblast cell line MRC-5; assay: MTT assay on a human fibroblast cell line; format: cell-based; conditions: MRC-5, MTT, 48 h
Description: (§3) Antiproliferative activity was tested by 3-(4,5-dimethylthiazol-2-yl)-2,5-diphenyltetrazolium bromide (MTT) assay on a human lung fibroblast cell line (MRC-5; ATCC collection). Pregrown (24 h) cell monolayers were incubated in the media containing the tested compounds at concentrations ranging from 5 to 500 μg/mL and the cell viability was measured after 48 h. RPMI 1640 medium supplemented with 100 μg/mL streptomycin, 100 U/mL penicillin, and 10% (v/v) FBS (all from Sigma, Munich, Germany) was used for the cultivation of MRC-5 cell line. Cells were maintained as a monolayer (1^·10^4 cells per well) in RPMI 1640 and grown in a humidified atmosphere of 95% air and 5% CO2 at 37°C. The extent of MTT reduction was measured spectrophotometrically at 540 nm using Tecan Infinite 200 Pro multiplate reader (Tecan Group Ltd, Männedorf, Switzerland), and the cell survival was expressed as a percentage of the control (untreated cells). Cytotoxicity was expressed as the concentration of the compound inhibiting cell growth by 50% (IC50).

[10] = tested on: C. albicans expressing red fluorescent protein; assay: C. albicans filamentation study; format: cell-based, Candida albicans; conditions: MIC80 of complex, 6 h, 37°C, RPMI 1640 with 10% FBS
Description: The suspension of C. albicans expressing red fluorescent protein was prepared in RPMI 1640 medium with 10% (v/v) fetal bovine serum (FBS) to induce hyphae formation. The suspension was then treated with MIC80 concentrations of 1–3 at 37°C shaking. Cells treated with DMSO served as the control. After 6 h of incubation, the results were observed by a fluorescence microscope (Olympus BX51, Applied Imaging Corp., San Jose, CA, United States) under 20× magnification.

calf thymus DNA (ctDNA) = assay: Competitive EthBr-DNA fluorescence binding experiment; conditions: Fluorescent titration, pH 7.4
Description: The competitive DNA-silver(I) complex binding experiments were carried out in the buffer (pH 7.4) by maintaining [DNA]/[EthBr] = 5, while increasing the concentration of the complexes 1–3. Each sample solution was scanned in the wavelength range 525–800 nm with an excitation wavelength of 520 nm. The Stern-Volmer constants (Ksv), which represent a measure of the binding propensity of the complexes to DNA, were calculated using the following equation [29]:(2) F0/F=1+Kqτ0complex=1+Ksvcomplex, where F0 and F are the fluorescence intensities in the absence and presence of the complexes, respectively. Kq stands for bimolecular quenching constant and τ0 (10^−8 s) is the lifetime of the fluorophore in the absence of the quencher. The binding constants (KA) and apparent binding sites (n) can be calculated by using the following equation [28]:(3) logF0−F/F=log KA+n logcomplex, where KA stands for the binding constant of the silver(I) complex with ctDNA and n stands for the apparent number of binding sites.

[11] = tested on: genomic DNA isolated from C. albicans ATCC 10231; assay: DNA interaction assay using gel electrophoresis; format: binding, Candida albicans; conditions: 40, 100 and 400 μM complex, 2 h, 30°C, Tris buffer pH 8.5
Description: DNA interaction assay using gel electrophoresis has also been conducted according to the previously published procedure using high molecular weight (HMW) genomic DNA isolated from C. albicans ATCC 10231. Briefly, DNA (50 ng/μL final concentration) was incubated with 40, 100, and 400 μM final concentration of silver(I) complexes 1–3 in Tris buffer, pH 8.5 in 50 μL reaction volume. After 2 h incubation at 30°C, 10 μL aliquots were taken, mixed with loading dye, and loaded on agarose gel. Control contained an appropriate volume of DMSO. DNA samples were run, 500 ng per lane, on 0.8% agarose gel with ethidium bromide (EthBr) against O'GeneRuler™ 1 kb Plus DNA Ladder (Thermo Scientific™) at 60 V for 1 h. Gels were visualized and analyzed using the Gel Doc EZ system (Bio-Rad, Life Sciences, Hercules, USA), equipped with the Image Lab™ Software.

[12] = molecular target: T1, bovine serum albumin (BSA) (Bos taurus, UniProt P02769); assay: BSA tryptophan fluorescence quenching; format: binding; conditions: BSA 13.1 μM, Tris buffer pH 7.4
T1 construct: purchased Sigma-Aldrich
Description: The protein binding study was performed by tryptophan fluorescence quenching experiments using BSA (13.1 μM) in Tris buffer solution (pH 7.4). The quenching of the emission intensity of tryptophan residues of BSA at 352 nm was monitored using the increasing concentration of the complexes 1–3 (up to 464.9 μM). Fluorescence spectra were recorded in the range 280–500 nm with an excitation wavelength of 275 nm. The corresponding binding constants of the complexes (KA) and apparent binding sites (n) were calculated as it was previously explained.

C. albicans = tested on: C. albicans; design: method as in PMID 30952084; conditions: at MIC doses; cited from earlier work
[13] = tested on: C. albicans infected zebrafish; design: method as in PMID 30952084; conditions: at MIC doses; cited from earlier work
[14] = MTT assay on a human fibroblast cell line; format: cell-based; conditions: human, MRC-5, MTT, read-out: IC50 (cytotoxic effect on MRC-5 cells)
Description: as §3

[15] = tested on: investigated bacterial strains; assay: Broth microdilution MIC, panel of bacterial strains; format: cell-based
Description: as §1

[16] = E. coli NCTC 9001, Luria-Bertani broth, 24 h, 37°C
[17] = P. aeruginosa PAO1, Luria-Bertani broth, 24 h, 37°C
[18] = L. monocytogenes NCTC 11994, Luria-Bertani broth, 24 h, 37°C
[19] = S. aureus ATCC 43300, Luria-Bertani broth, 24 h, 37°C
[20] = E. faecalis ATCC 29212, Luria-Bertani broth, 24 h, 37°C
[21] = S. enteritidis ATCC 13075, Luria-Bertani broth, 37°C
[22] = S. pullorum ATCC 13036, Luria-Bertani broth, 37°C
[23] = C. albicans ATCC 10231, RPMI 1640 with 2% glucose
[24] = C. parapsilosis ATCC 22019, RPMI 1640 with 2% glucose
[25] = C. glabrata ATCC 2001, RPMI 1640 with 2% glucose
[26] = C. krusei ATCC 6258, RPMI 1640 with 2% glucose

T1 sequence (P02769 25-607): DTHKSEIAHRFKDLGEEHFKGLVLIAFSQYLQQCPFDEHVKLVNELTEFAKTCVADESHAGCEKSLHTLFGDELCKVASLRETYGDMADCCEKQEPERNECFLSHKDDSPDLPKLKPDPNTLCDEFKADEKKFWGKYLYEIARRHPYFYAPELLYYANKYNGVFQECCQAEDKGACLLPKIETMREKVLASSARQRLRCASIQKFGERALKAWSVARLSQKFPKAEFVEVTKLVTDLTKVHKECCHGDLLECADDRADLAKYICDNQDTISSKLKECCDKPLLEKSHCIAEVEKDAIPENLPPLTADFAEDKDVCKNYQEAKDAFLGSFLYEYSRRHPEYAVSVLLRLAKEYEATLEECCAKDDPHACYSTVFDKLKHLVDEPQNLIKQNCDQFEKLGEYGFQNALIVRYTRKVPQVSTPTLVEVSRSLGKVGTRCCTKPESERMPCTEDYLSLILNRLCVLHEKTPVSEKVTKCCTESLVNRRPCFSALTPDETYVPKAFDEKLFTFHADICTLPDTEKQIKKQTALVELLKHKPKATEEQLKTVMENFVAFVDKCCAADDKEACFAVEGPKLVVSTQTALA

| Compound | MIC [1, 16] | MIC [2, 17] [µg/mL] | MIC [3, 18] [µg/mL] | MIC [4, 19] [µg/mL] | MIC [5, 20] [µg/mL] | MIC [6, 21] [µg/mL] | MIC [7, 22] [µg/mL] | MIC (C. albicans ATCC 10231; [23]) [µg/mL] | MIC [8, 24] [µg/mL] | MIC (C. glabrata ATCC 2001; [25]) [µg/mL] | MIC (C. krusei ATCC 6258; [26]) [µg/mL] | IC50 (cytotoxic effect on MRC-5 cells) [9] | effect on C. albicans hyphae formation [10] | Hypochromism (calf thymus DNA (ctDNA)) [%] | interaction with C. albicans genomic DNA (emission of EthBr-DNA system on gel) [11] | Tryptophan fluorescence quenching (emission decrease at 352 nm) [12] [%] | n (number of binding sites per albumin) [12] | effect on C. albicans filamentation (C. albicans) | outcome of infected zebrafish [13] | further results |
| --- | --- | --- | --- | --- | --- | --- | --- | --- | --- | --- | --- | --- | --- | --- | --- | --- | --- | --- | --- | --- |
| O=[N+]([O-])[O-].[Ag+].c1cc(CCc2ccncc2)ccn1 [Complex 1, {[Ag(bpa)]NO3}n] | 12.5^a μg/mL | 50 | 50 | 50 | 12.5 | 50 | 25 | 6.25 | 3.1 | 6.25 | 6.25 | 40^b μg/mL | did not significantly affect the hyphae formation | 11.3 | Slightly higher interaction | 65.65 | 1.14 | – | – | effect on C. albicans growth under filamentation conditions [10]: reduced the growth |
| O.O=S(=O)([O-])C(F)(F)F.[Ag+].c1cc(CCc2ccncc2)ccn1.c1cc(CCc2ccncc2)ccn1 [Complex 2, {[Ag(bpa)2]CF3SO3^.H2O}n] | 12.5 µg/mL | 200 | 50 | 200 | 25 | 50 | 12.5 | 6.25 | 2.5 | 12.5 | 3.1 | 30 µg/mL | decreased number and length of hyphae | 12.0 | Slightly higher interaction | 76.10 | 1.10 | – | – | – |
| C(=C\c1ccncc1)/c1ccncc1.O=S(=O)([O-])C(F)(F)F.[Ag+] [Complex 3, {[Ag(bpe)]CF3SO3}n] | 12.5 µg/mL | 25 | 25 | 100 | 25 | 200 | 250 | 25 | 3.1 | 25 | 6.25 | 40 µg/mL | did not significantly affect the hyphae formation | 3.8 | – | 81.13 | 1.30 | – | – | K A (calf thymus DNA (ctDNA)): 59.16 M⁻¹ |
| O=C([O-])C(F)(F)F.[Ag+].c1cnc2ccc3ncccc3c2c1 [[Ag(CF3COO)(4,7-phen)]n] | – | – | – | – | – | – | – | – | – | – | – | – | – | – | – | – | – | totally prevented C. albicans filamentation | rescued the infected zebrafish of the lethal infection outcome | – |
| O=[N+]([O-])[O-].[Ag+].c1cnc2ccc3ncccc3c2c1 [[Ag(NO3)(4,7-phen)]n] | – | – | – | – | – | – | – | – | – | – | – | – | – | – | – | – | – | totally prevented C. albicans filamentation | rescued the infected zebrafish of the lethal infection outcome | – |
| c1cc(CCc2ccncc2)ccn1 [bpa, 1,2-Bis(4-pyridyl)ethane] | – | – | – | – | – | – | – | – | – | – | – | – | – | – | – | – | – | – | – | MIC ([1]; Escherichia coli, NCTC9001, 24 h): > 500 µg/mL; MIC ([2]; Pseudomonas aeruginosa, PAO1, 24 h): > 500 µg/mL; MIC ([3]; Listeria monocytogenes, NCTC11994, 24 h): > 500 µg/mL; MIC ([4]; Staphylococcus aureus, ATCC43300, 24 h): > 500 µg/mL; MIC ([5]; Enterococcus faecalis, ATCC29212, 24 h): > 500 µg/mL; MIC ([6]; Salmonella enterica): > 500 µg/mL; MIC ([7]; Salmonella enterica): > 500 µg/mL; MIC (C. albicans ATCC 10231; Candida albicans, ATCC10231): 125 µg/mL (≈ 678 µM); MIC ([8]; Lodderomyces parapsilosis, ATCC22019): 250 µg/mL (≈ 1360 µM); MIC (C. glabrata ATCC 2001; Nakaseomyces glabratus, ATCC2001): > 500 µg/mL; MIC (C. krusei ATCC 6258; Pichia kudriavzevii, ATCC6258): 125 µg/mL (≈ 678 µM); IC50 at 48 h [14]: 300 µg/mL (≈ 1630 µM); MIC / antibacterial activity [15]: not significant |
